# Reference: ChEMBL document CHEMBL1201862, “PubChem BioAssay data set” (2004)
# Calls of active or inactive are those of the source.
# What was measured:
# [1] = mouse fibroblast viability loss – cell-based, cherry-pick samples, set 2, cytotoxicity control for T. cruzi growth inhibitor project, dose response (AID 651817); format: functional; settings: NIH3T3
# [2] = viability loss in HeLa cells – cytotoxicity control for MgcRacGAP inhibitor project, dose response (AID 624300); format: functional
# [3] = fluconazole-exposed Candida albicans growth modulators – fluorescence, retest, confirmation (AID 2467); format: functional, cell-based
# [4] = biological target: Photoreceptor-specific nuclear receptor (Homo sapiens, UniProt Q9Y5X4); format: functional, cell-based;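 also: CHO-S cells with Gal4-NCOR and VP16-NR2E3 two-hybrid luciferase reporter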
# [5] = Trypanosoma cruzi growth suppression in host cells – NIH3T3 host cells, beta-gal luminescence, confirmation (AID 2044); format: functional, cell-based;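 also: intracellular parasites grown in NIH/3T3 mouse fibroblasts as host cells; luminescent beta-galactosidase reporter signal from transgenic T. cruzi replicating inside host cells; inhibitors lower the luminescence signal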
# [6] = tested on: Streptococcus; test: GAS UMAA2166 growth inhibition – luminescence, BacTiterGlo, counter-screen for streptokinase expression inhibitor project, dose response (AID 1915); format: functional, organism-based;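 also: potency for reduction of bacterial viability or growth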
# [7] = biological target: T1, Leucine aminopeptidase (Plasmodium falciparum 3D7, UniProt Q8IL11); test: P. falciparum M17LAP inhibitors, primary screen, biochemical, fluorogenic H-Leu-NHMec substrate, 1536-well (AID 1619); format: functional
# T1 sequence (Q8IL11 whole entry): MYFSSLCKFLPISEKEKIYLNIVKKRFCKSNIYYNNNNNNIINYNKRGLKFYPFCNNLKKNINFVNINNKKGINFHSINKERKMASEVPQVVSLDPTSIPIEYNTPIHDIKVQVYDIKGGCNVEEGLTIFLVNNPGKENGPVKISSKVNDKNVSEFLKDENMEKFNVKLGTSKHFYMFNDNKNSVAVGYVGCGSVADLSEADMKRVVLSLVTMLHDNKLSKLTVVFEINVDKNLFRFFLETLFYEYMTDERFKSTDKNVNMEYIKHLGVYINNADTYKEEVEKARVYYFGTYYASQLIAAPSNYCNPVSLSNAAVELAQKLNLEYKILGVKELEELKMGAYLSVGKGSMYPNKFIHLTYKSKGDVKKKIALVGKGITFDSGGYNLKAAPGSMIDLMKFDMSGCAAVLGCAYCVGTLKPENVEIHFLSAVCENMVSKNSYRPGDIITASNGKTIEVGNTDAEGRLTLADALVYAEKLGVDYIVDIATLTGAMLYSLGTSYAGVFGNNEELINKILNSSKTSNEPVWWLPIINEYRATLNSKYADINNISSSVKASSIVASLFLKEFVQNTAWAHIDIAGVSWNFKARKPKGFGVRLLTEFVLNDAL
# [8] = biological target: Nonstructural protein 1 (Influenza A virus, UniProt Q194T2); format: functional, Influenza A virus (A/California/07/2009(H1N1))
# [9] = NIH3T3 cell viability loss – ATP luminescence, mouse fibroblasts, counter-screen, dose response (AID 2010); format: functional, cell-based;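 also: cells exposed to compound for about 90 hours before reading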
# [10] = biological target: T2, Streptokinase A (Streptococcus pyogenes serotype M1, UniProt P10520); test: viability-normalized secreted streptokinase activity reduction – plasminogen activation absorbance, OD405, dose response (AID 1914); format: functional, Streptococcus pyogenes M1 GAS;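 also: secreted streptokinase activity via plasminogen activation per viability signal from cell pellet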
# T2 sequence (P10520 whole entry): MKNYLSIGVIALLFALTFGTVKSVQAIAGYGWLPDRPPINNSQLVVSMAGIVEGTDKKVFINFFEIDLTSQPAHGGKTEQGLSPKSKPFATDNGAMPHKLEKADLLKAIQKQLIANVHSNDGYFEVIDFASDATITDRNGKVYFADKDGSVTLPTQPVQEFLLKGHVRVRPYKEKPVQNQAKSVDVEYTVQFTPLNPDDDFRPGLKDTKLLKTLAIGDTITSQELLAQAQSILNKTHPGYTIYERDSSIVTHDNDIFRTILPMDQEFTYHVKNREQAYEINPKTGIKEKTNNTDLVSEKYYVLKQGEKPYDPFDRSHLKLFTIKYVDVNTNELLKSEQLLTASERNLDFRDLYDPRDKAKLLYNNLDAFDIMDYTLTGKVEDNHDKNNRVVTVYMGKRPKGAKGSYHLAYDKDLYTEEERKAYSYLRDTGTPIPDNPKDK
# [11] = cells
# [12] = biological target: T3, Rac GTPase-activating protein 1 (Homo sapiens, UniProt Q9H0H5); test: blockers of MgcRacGAP-driven Rac1 GTP hydrolysis – biochemical, ADP Hunter fluorescence, primary and confirmatory, confirmation (AID 624330); format: functional
# T3 sequence (Q9H0H5 whole entry): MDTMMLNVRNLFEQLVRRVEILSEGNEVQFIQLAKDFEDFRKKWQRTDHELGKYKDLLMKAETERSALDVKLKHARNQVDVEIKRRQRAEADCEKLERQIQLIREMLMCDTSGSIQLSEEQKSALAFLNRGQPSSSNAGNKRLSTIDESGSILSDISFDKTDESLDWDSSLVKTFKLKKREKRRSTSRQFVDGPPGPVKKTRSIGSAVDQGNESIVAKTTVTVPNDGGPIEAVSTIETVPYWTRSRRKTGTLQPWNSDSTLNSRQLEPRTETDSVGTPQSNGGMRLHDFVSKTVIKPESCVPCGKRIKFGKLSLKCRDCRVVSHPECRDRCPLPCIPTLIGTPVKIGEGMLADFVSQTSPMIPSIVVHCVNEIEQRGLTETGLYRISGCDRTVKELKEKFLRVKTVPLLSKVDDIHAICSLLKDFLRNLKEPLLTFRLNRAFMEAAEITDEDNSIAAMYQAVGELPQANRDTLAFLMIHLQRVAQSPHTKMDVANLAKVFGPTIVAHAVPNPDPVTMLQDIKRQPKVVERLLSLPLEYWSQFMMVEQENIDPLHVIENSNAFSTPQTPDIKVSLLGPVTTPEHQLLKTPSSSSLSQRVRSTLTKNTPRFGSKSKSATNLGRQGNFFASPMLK
# [13] = NIH-3T3 fibroblast cytotoxicity, dose response, cytotoxicity control, cell-based, fluorescence, Alamar Blue, secondary assay (AID 2327); format: functional;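 also: NIH-3T3 mouse fibroblasts cultured with fluconazole at 8 µg/mL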
# [14] = tested on: Streptococcus sp. 'group A'; test: Streptococcus pyogenes SK(-)GAS viability under kanamycin – luminescence, BacTiterGlo, confirmation, counter-screen for streptokinase expression inhibitor project, dose response (AID 1900); format: functional, organism-based
# [15] = biological target: T4, Sentrin-specific protease 8 (Homo sapiens, UniProt Q96LD8); format: functional
# T4 sequence (Q96LD8 whole entry): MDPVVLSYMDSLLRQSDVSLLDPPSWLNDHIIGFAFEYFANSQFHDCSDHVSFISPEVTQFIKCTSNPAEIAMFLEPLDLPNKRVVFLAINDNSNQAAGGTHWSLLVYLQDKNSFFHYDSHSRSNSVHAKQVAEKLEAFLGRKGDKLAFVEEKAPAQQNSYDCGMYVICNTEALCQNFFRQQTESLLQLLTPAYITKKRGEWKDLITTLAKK
# [16] = biological target: T4, Sentrin-specific protease 8; format: functional; remark: listed apart in the source
# [17] = biological target: T5, Replicative DNA helicase DnaB (Mycobacterium tuberculosis, UniProt P9WMR3); test: DnaB intein splicing inhibitors, dose response, biochemical, cell-free fluorescence (AID 449749); format: functional
# T5 sequence (P9WMR3 whole entry): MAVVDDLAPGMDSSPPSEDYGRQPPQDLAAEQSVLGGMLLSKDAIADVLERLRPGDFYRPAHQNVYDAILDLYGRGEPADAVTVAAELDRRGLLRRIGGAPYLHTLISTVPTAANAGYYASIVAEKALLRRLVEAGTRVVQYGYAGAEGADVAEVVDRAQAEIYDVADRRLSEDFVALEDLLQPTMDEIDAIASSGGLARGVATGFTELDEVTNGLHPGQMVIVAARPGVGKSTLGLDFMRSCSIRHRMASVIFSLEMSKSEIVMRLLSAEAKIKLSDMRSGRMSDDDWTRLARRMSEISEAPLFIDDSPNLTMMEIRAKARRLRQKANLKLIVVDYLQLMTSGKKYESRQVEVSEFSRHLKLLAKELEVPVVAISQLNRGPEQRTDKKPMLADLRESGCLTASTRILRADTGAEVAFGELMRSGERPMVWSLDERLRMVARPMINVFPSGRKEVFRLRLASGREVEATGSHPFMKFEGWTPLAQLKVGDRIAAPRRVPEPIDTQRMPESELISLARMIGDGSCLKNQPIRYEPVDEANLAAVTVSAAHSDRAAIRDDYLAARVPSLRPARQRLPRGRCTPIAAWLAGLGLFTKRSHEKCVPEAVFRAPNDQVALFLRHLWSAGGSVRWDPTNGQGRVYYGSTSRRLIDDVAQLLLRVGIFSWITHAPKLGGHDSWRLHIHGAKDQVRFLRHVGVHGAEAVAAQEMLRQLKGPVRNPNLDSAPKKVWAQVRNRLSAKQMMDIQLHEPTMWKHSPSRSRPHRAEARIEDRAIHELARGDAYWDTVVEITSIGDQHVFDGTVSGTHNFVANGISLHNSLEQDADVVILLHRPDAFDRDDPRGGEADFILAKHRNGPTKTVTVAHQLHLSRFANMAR
# [18] = biological target: T6, Protein RecA (Mycobacterium tuberculosis, UniProt P9WHJ3); test: Fluorescence Cell-Free Homogeneous Dose Retest to Identify Inhibitors of RecA-Intein Splicing Activity. [Related pubchem assays (depositor defined):AID2097, AID2223, AID489010, AID492950]; format: functional
# T6 sequence (P9WHJ3 whole entry): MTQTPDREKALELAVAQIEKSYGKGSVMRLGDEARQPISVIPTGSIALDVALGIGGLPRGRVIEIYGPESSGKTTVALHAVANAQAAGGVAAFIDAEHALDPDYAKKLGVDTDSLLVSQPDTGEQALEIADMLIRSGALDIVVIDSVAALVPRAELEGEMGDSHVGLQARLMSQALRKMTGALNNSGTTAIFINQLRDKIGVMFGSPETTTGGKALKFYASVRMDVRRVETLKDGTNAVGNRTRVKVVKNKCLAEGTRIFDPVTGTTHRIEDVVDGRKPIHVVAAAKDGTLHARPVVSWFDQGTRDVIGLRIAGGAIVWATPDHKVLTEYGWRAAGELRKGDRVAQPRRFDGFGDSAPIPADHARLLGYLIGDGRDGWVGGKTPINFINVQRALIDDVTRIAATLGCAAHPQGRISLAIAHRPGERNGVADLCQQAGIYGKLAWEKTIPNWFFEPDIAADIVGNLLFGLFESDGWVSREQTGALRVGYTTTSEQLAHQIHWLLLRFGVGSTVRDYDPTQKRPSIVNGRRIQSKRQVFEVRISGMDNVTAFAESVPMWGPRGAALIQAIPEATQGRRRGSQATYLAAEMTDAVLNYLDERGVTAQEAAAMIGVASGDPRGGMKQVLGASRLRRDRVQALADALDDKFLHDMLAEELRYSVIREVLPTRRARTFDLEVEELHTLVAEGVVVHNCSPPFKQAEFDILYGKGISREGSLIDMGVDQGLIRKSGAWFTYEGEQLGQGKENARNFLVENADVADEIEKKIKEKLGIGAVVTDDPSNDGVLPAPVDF
# [19] = biological target: T7, Small ubiquitin-related modifier 1 (Homo sapiens, UniProt P63165); test: SUMO1 protein-protein binding blockers, potency – biochemical, FRET, dose response (AID 624383); format: functional; settings: read-out: IC50_Mean
# [20] = biological target: T8, Small ubiquitin-related modifier 2 (Homo sapiens, UniProt P61956); test: SUMO2 binding disruption by SUMO1 hits – biochemical, FRET, human SUMO2, uHTS hits, selectivity assay for SUMO1 interaction inhibitor project, dose response (AID 624384); format: functional; settings: read-out: IC50_Mean
# [21] = Potency on glucagon-like peptide 1 release, dose-response in NCI-H716 cell line, half maximal inhibitory concentration (AID 1117344); format: functional, cell-based
# [22] = glucagon-like peptide-1 release potency in STC-1, concentration-response, half-maximal inhibitory concentration in the STC-1 line (AID 1117345); format: functional, cell-based
# [23] = biological target: T8, Small ubiquitin-related modifier 2; test: disruption of SUMO2 interaction with SIM peptide – biochemical, fluorescence polarization, uHTS hits, selectivity assay for SUMO1 interaction inhibitor project, dose response (AID 624385); format: functional; settings: read-out: IC50_Mean
# [24] = biological target: T7, Small ubiquitin-related modifier 1; test: SUMO1 protein interaction blockers, potency – biochemical, fluorescence polarization, uHTS hits, dose response (AID 624382); format: functional; settings: read-out: IC50_Mean
# T8 sequence (P61956 whole entry): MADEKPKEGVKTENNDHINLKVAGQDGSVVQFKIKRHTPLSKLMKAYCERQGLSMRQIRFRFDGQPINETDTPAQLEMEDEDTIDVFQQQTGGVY
# T7 sequence (P63165 whole entry): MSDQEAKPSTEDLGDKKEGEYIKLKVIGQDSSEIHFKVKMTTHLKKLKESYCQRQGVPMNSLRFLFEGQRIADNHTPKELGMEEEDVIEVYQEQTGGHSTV
# Nonstructural protein 1, sequence (Q194T2 whole entry): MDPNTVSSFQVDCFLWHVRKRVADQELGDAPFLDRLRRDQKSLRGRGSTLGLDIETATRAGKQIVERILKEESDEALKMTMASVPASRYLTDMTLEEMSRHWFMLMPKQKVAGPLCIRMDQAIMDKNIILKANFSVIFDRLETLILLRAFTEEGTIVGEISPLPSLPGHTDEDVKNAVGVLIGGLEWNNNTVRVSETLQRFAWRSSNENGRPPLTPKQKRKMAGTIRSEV
# Photoreceptor-specific nuclear receptor, sequence (Q9Y5X4 whole entry, the tested form may be a part): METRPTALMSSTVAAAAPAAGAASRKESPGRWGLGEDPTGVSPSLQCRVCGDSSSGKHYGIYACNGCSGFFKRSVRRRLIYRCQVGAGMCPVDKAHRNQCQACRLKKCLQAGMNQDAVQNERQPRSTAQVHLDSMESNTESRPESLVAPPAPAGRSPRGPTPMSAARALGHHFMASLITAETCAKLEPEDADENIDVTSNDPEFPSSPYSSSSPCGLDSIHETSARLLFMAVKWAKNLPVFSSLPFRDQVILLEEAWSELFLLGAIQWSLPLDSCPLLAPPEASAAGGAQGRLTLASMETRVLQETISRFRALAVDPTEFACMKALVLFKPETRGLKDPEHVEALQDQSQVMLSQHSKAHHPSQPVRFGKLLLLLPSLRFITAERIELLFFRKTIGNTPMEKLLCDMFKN
smiles,measurement,setting,value
C[C@@H]1CN([C@H](C)CO)C(=O)c2cccc(NC(=O)c3ccncc3)c2O[C@H]1CN(C)Cc1ccc(-c2ccccc2)cc1,AC50,[1],42 µM (inactive)
CN(C)c1ccc(/C=C/c2ccc3ccccc3[n+]2C)cc1,CC50,[2],28.9 µM (active)
same,EC50,[3],0.035 µM (active)
same,IC50,[4],19.2 µM (inactive)
same,EC50,[5],< 0.1 µM (active)
same,EC50,[6],11.5 µM (active)
same,IC50,[7],88.4 µM (active)
same,IC50,[8],14.3 µM (active)
same,EC50,[9],18.5 µM (active)
same,EC50,[10],> 150 µM (not active)
same,EC50,[11],< 0.004 µM (active)
same,IC50,[12],46.8 µM (active)
same,EC50,[13],> 150 µM (inactive)
same,EC50,[14],6.7 µM (active)
O=C1C2=[N+]([O-])C3CCCCC3[N+]([O-])=C2c2ccccc21 (centres undefined),IC50,[15],9.46 µM (active)
same,IC50,[16],2.98 µM (active)
same,AC50,[17],6.38 µM (active)
same,EC50,[18],9.54 µM (active)
[O-][S+](c1cc(Cl)cc(Cl)c1O)c1cc(Cl)cc(Cl)c1O [BITHIONOLOXIDE],IC50,[19],9.66 µM (active)
same,IC50,[20],43.3 µM (inactive)
same,IC50,[21],19.7 µM (inactive)
same,IC50,[22],> 40 µM (inactive)
same,IC50,[23],3.55 µM (active)
same,IC50,[24],0.876 µM (active)
